Counter-ions that a name gives are not always drawn.
Assay: 50% inhibitory concentration against phosphodiesterase 5 (PDE5) from porcine platelets

| Structure (SMILES) | IC50 |
| --- | --- |
| COc1ccc(CNc2nnc(N3CCC(CO)CC3)c3ccc(C#N)cc23)cc1Cl [4-(3-Chloro-4-methoxy-benzylamino)-1-(4-hydroxymethyl-piperidin-1-yl)-phthalazine-6-carbonitrile; hydrochloride] | 0.93 nM |
| COc1ccc(CNc2nnc(NCCCO)c3ccc(C#N)cc23)cc1Cl [4-(3-Chloro-4-methoxy-benzylamino)-1-(3-hydroxy-propylamino)-phthalazine-6-carbonitrile; hydrochloride] | 2.6 nM |
| COc1ccc(CNc2nnc(NCc3ccccn3)c3ccc(C#N)cc23)cc1Cl [4-(3-Chloro-4-methoxy-benzylamino)-1-[(pyridin-2-ylmethyl)-amino]-phthalazine-6-carbonitrile; hydrochloride] | 2.7 nM |
| COc1ccc(CNc2nnc(N3CCCC(O)C3)c3ccc(C#N)cc23)cc1Cl (configuration not stated) [4-(3-Chloro-4-methoxy-benzylamino)-1-(3-hydroxy-piperidin-1-yl)-phthalazine-6-carbonitrile; hydrochloride] | 1.2 nM |
| COc1ccc(CNc2nnc(N3CCN(C)CC3)c3ccc(C#N)cc23)cc1Cl [4-(3-Chloro-4-methoxy-benzylamino)-1-(4-methyl-piperazin-1-yl)-phthalazine-6-carbonitrile; hydrochloride] | 0.95 nM |
| COc1ccc(CNc2nnc(N3CCC(CCO)CC3)c3ccc(C#N)cc23)cc1Cl [4-(3-Chloro-4-methoxy-benzylamino)-1-[4-(2-hydroxy-ethyl)-piperidin-1-yl]-phthalazine-6-carbonitrile; hydrochloride] | 0.7 nM |
| COc1ccc(CNc2nnc(N3CCN(c4ncccn4)CC3)c3ccc(C#N)cc23)cc1Cl [4-(3-Chloro-4-methoxy-benzylamino)-1-(4-pyrimidin-2-yl-piperazin-1-yl)-phthalazine-6-carbonitrile; hydrochloride] | 19 nM |
| COc1ccc(CNc2nnc(N3CCC(O)CC3)c3ccc([N+](=O)[O-])cc23)cc1Cl [1-[4-(3-Chloro-4-methoxy-benzylamino)-6-nitro-phthalazin-1-yl]-piperidin-4-ol; hydrochloride] | 0.3 nM |
| COc1ccc(CNc2nnc(N3CCC(O)CC3)c3cc(Cl)c(Cl)cc23)cc1Cl [1-[6,7-Dichloro-4-(3-chloro-4-methoxy-benzylamino)-phthalazin-1-yl]-piperidin-4-ol; hydrochloride] | 0.86 nM |
| COc1ccc(CNc2nnc(N3CCC(O)CC3)c3ccc(C(=O)O)cc23)cc1Cl [4-(3-Chloro-4-methoxy-benzylamino)-1-(4-hydroxy-piperidin-1-yl)-phthalazine-6-carboxylic acid; hydrochloride] | 600 nM |
| COc1ccc(CNc2nnc(N3CCC(O)CC3)c3ccc(Cl)cc23)cc1Cl [1-[6-Chloro-4-(3-chloro-4-methoxy-benzylamino)-phthalazin-1-yl]-piperidin-4-ol; hydrochloride] | 4.4 nM |
| COc1ccc(CNc2nnc(N3CCN(c4ccccn4)CC3)c3ccc(C#N)cc23)cc1Cl [4-(3-Chloro-4-methoxy-benzylamino)-1-(4-pyridin-2-yl-piperazin-1-yl)-phthalazine-6-carbonitrile; hydrochloride] | 11 nM |
| COc1ccc(CNc2nnc(N3CCC(OC)CC3)c3ccc(C#N)cc23)cc1Cl [4-(3-Chloro-4-methoxy-benzylamino)-1-(4-methoxy-piperidin-1-yl)-phthalazine-6-carbonitrile; hydrochloride] | 1.1 nM |
| COc1ccc(CNc2nnc(N3CCN(CCO)CC3)c3ccc(C#N)cc23)cc1Cl [4-(3-Chloro-4-methoxy-benzylamino)-1-[4-(2-hydroxy-ethyl)-piperazin-1-yl]-phthalazine-6-carbonitrile; hydrochloride] | 1.7 nM |
| COc1ccc(CNc2nnc(N3CCC(O)CC3)c3ccc(C(F)(F)F)cc23)cc1Cl [1-[4-(3-Chloro-4-methoxy-benzylamino)-6-trifluoromethyl-phthalazin-1-yl]-piperidin-4-ol; hydrochloride] | 0.73 nM |
| COc1ccc(CNc2nnc(N[C@H]3CC[C@H](O)CC3)c3ccc(C#N)cc23)cc1Cl [4-(3-Chloro-4-methoxy-benzylamino)-1-(4-hydroxy-cyclohexylamino)-phthalazine-6-carbonitrile; hydrochloride] | 12 nM |
| COc1ccc(CNc2nnc(N3CCC(NS(C)(=O)=O)CC3)c3ccc(C#N)cc23)cc1Cl [N-{1-[4-(3-Chloro-4-methoxy-benzylamino)-6-cyano-phthalazin-1-yl]-piperidin-4-yl}-methanesulfonamide; hydrochloride] | 14 nM |
| COc1ccc(CNc2nnc(N3CCC(C(N)=O)CC3)c3ccc(C#N)cc23)cc1Cl [1-[4-(3-Chloro-4-methoxy-benzylamino)-6-cyano-phthalazin-1-yl]-piperidine-4-carboxylic acid amide; hydrochloride] | 0.5 nM |
| COc1ccc(CNc2nnc(N3CCC(C(=O)O)CC3)c3ccc(C#N)cc23)cc1Cl [1-[4-(3-Chloro-4-methoxy-benzylamino)-6-cyano-phthalazin-1-yl]-piperidine-4-carboxylic acid; hydrochloride] | 3.1 nM |
| COc1ccc(CNc2nnc(N3CCC(O)CC3)c3ccc(C(N)=O)cc23)cc1Cl [4-(3-Chloro-4-methoxy-benzylamino)-1-(4-hydroxy-piperidin-1-yl)-phthalazine-6-carboxylic acid amide; hydrochloride] | 2 nM |

The remaining lines, values ahead:

| IC50 | Structure (SMILES) |
| --- | --- |
| 0.7 nM | COc1ccc(CNc2nnc(N3CC[S+]([O-])CC3)c3ccc(C#N)cc23)cc1Cl |
| 6.7 nM | COc1ccc(CNc2nnc(NCc3ccncc3)c3ccc(C#N)cc23)cc1Cl [4-(3-Chloro-4-methoxy-benzylamino)-1-[(pyridin-4-ylmethyl)-amino]-phthalazine-6-carbonitrile; hydrochloride] |
| 0.7 nM | COc1ccc(CNc2nnc(N3CCC(C)(O)CC3)c3ccc(C#N)cc23)cc1Cl [4-(3-Chloro-4-methoxy-benzylamino)-1-(4-hydroxy-4-methyl-piperidin-1-yl)-phthalazine-6-carbonitrile; hydrochloride] |
| 0.55 nM | COc1ccc(CNc2nnc(N3CCCCC3)c3ccc(C#N)cc23)cc1Cl [4-(3-Chloro-4-methoxy-benzylamino)-1-piperidin-1-yl-phthalazine-6-carbonitrile; hydrochloride] |
| 0.53 nM | COc1ccc(CNc2nnc(N3CCC(=O)CC3)c3ccc(C#N)cc23)cc1Cl [4-(3-Chloro-4-methoxy-benzylamino)-1-(4-oxo-piperidin-1-yl)-phthalazine-6-carbonitrile; hydrochloride] |
| 1.2 nM | COc1ccc(CNc2nnc(N3CCNCC3)c3ccc(C#N)cc23)cc1Cl [4-(3-Chloro-4-methoxy-benzylamino)-1-piperazin-1-yl-phthalazine-6-carbonitrile; hydrochloride] |
| 0.32 nM | COc1ccc(CNc2nnc(N3CCSCC3)c3ccc(C#N)cc23)cc1Cl [4-(3-Chloro-4-methoxy-benzylamino)-1-thiomorpholin-4-yl-phthalazine-6-carbonitrile; hydrochloride] |
| 1.5 nM | COc1ccc(CNc2nnc(-n3ccnc3)c3ccc(C#N)cc23)cc1Cl [4-(3-Chloro-4-methoxy-benzylamino)-1-imidazol-1-yl-phthalazine-6-carbonitrile; hydrochloride] |
| 0.79 nM | COc1ccc(CNc2nnc(N3CCS(=O)(=O)CC3)c3ccc(C#N)cc23)cc1Cl [4-(3-Chloro-4-methoxy-benzylamino)-1-(1,1-dioxo-1lambda*6*-thiomorpholin-4-yl)-phthalazine-6-carbonitrile; hydrochloride] |
| 6.8 nM | COc1ccc(CNc2nnc(NCc3cccnc3)c3ccc(C#N)cc23)cc1Cl [4-(3-Chloro-4-methoxy-benzylamino)-1-[(pyridin-3-ylmethyl)-amino]-phthalazine-6-carbonitrile; hydrochloride] |
| 1.9 nM | COc1ccc(CNc2nnc(N3CC=CCC3)c3ccc(C#N)cc23)cc1Cl [4-(3-Chloro-4-methoxy-benzylamino)-1-(3,6-dihydro-2H-pyridin-1-yl)-phthalazine-6-carbonitrile; hydrochloride] |
| 3 nM | COc1ccc(CNc2nnc(Cl)c3ccc(C#N)cc23)cc1Cl |

Reference: BindingDB's records for doi:10.1021/jm9905054 (Eisai, 2000)
